Values quoted from earlier work as cited in patent US6727227B1, “Tetrapetide revealing geroprotective effect, pharmacological substance on its basis, and the method of its application” (Obschestvo S Ogranichennoi Otvetstven-Nostiju “Klinika …, priority 2002, dated 2004).

Tests used:
LAF1 strain in mice = conditions: LAF1 mice with accelerated ageing, food-supplement; cited from earlier work
experimental animals = conditions: cited from earlier work
mice = conditions: cited from earlier work
[1] = test system: Drosophila melanogaster (HEM strain); conditions: cited from earlier work
mice of C3H strain = conditions: addition to food; cited from earlier work
mice of SAM strain = conditions: diet with increased amount for 7 months; cited from earlier work

Compound	Life span (experimental animals)	further results
Cc1cc(C(C)(C)C)c(O)c(C(C)(C)C)c1 [Ionol, 2.6-di-tert-butyl4-methylphenol]		Life span (LAF1 strain in mice): promoted an increase in the life span
vitamin E	increase in the life span	
O=C(O)[C@H](O)[C@@H](O)[C@H](O)[C@H](O)CO [gluconic acid, lactic and gluconic acids]	insignificant extension in the life span	
butyl hydroxytoluol	insignificant extension in the life span	
NCCS [2-mercaptoethanolamine]	insignificant extension in the life span	
COc1ccc2[nH]cc(CCNC(C)=O)c2c1 [melatonin]		Average life span (mice): A minor increase in the average life span; Geroprotective effect [1]: failed to produce a geroprotective effect
CCOc1ccc2c(c1)C(C)=CC(C)(C)N2 [ethoxyhin]		Life span (mice of C3H strain): extended the life span
NCCC(=O)N[C@@H](Cc1cnc[nH]1)C(=O)O [carnosine]		Death rate (mice of SAM strain): death rat decreased
CN(C)CCOC(=O)COc1ccc(Cl)cc1 [centrophenoxyn]	insignificant extension in the life span	
CCc1nc(C)ccc1O.Cl [2-ethyl-6-methyl-3-oxypyridine chlorhydrate]	An increase in the life span	
N[C@@H](CS)C(=O)O [cystein]	insignificant extension in the life span	
vitamin A	increase in the life span	
N[C@@H](CCC(=O)N[C@@H](CS)C(=O)NCC(=O)O)C(=O)O [glutathione]	insignificant extension in the life span	
O=C1O[C@H]([C@@H](O)CO)C(O)=C1O [vitamin C]	increase in the life span	
Oc1cccnc1 [3-hydroxypyridine]	insignificant extension in the life span	
